Laboratory results: patent publication US6995148B2, “Adenosine cyclic ketals: novel adenosine analogues for pharmacotherapy” (University of Pittsburgh, priority 2001, dated 2006)

Columns and labels:
[1] = tested on: patients with acute anterior myocardial infarction; conditions: three-hour intravenous infusion; cited from earlier work
anesthetized rat = experiment: Hemodynamic effects (MABP and heart rate) of intravenous bolus in anesthetized rat; type: in vivo; conditions: bolus injection of 0.2 mg/kg
Experimental: Preliminary experiments were conducted to evaluate the hemodynamic effects of nonamethonium ACK. Adult male Sprague-Dawley rats utilized in these studies were purchased from Charles River Laboratories (Wilmington, Mass.) and maintained in the University of Pittsburgh Animal Facility. Rats were provided free access to Prolab Isopro RMH 3000 rodent diet (PMI Nutritional Intl., Richmond, Ind.) a nd tap water. The rats weighed approximately 300 grams at the time of study.
Rats were anesthetized with Inactin (100 mg/kg, intraperitoneally or i.p.) and placed on a Deltaphase Isothermal Pad (Braintree Scientific, Inc.; Braintree, Mass.). Body temperature was monitored with a digital rectal probe thermometer (Physioltemp Instruments, Inc.; Clifton, N.J.) and maintained at 37° C. by adjusting a heat lamp above the animal. The trachea was cannulated with polyethylene (PE)- 240 to maintain airway patency, a PE-50 catheter was inserted into the left jugular vein and an intravenous infusion of 0.9% saline was initiated at 80 μl/min. A left carotid artery catheter (PE-50) was inserted and was connected to a digital blood pressure analyzer (Micro-Med; Louisville, Ky.) for continuous measurement of mean arterial blood pressure (MABP) and heart rate. The digital blood pressure analyzer was set to time-average MABP and heart rate at one-minute (slow speed) or two-second (high speed) intervals.
After a 30 minute post-operation rest period, the rats received bolus injections of either adenosine or nonamethonium ACK. Some rats were pretreated with a bolus of 1,3-dipropyl-p-sulfophenylxanthine (DPSPX, a well-characterized adenosine receptor antagonist) followed by a constant rate infusion of DPSPX at 0.15 mg/80 μl/min. It has previously been shown that this dosing regimen with DPSPX effectively blocks adenosine receptors in the rat in vivo.

A2A receptors = conditions: cited from earlier work

**Q.** For Nc1ncnc2c1ncn2[C@@H]1O[C@H](CO)[C@@H](O)[C@H]1O [adenosine], which “reduction of infarct size” value [1] is on record?
**A.** 66%

**Q.** And the “time to recovery of MABP” value (anesthetized rat)?
**A.** approximately 500 seconds

**Q.** What about the “time to recovery of heart rate” value (anesthetized rat) of the same molecule?
**A.** approximately 100 seconds

**Q.** What about the “reduction of MABP” value (anesthetized rat; FIG. 2A) of the same molecule?
**A.** 76 mm Hg

**Q.** And the “reduction of heart rate” value (anesthetized rat; FIG. 2B)?
**A.** 158 beats per minute

**Q.** For CCNC(=O)[C@H]1O[C@@H](n2cnc3c(N)nc(NCCc4ccc(CCC(=O)O)cc4)nc32)[C@H](O)[C@@H]1O [CGS 21680, 2-[4-[(2-carboxyethyl)phenyl]ethylamino]-5′-N-ethylcarboxamidoadenosine], which “affinity for A2A receptors” value (A2A receptors) is on record?
**A.** high affinity
